The test system of one series is T-Jurkat cells. The series can be described thus: Dye-based proliferation assay VPD450 (flow cytometry), T-Jurkat. Type of series: cell-based, human. Particulars: Homo sapiens, 48 h. The method, then:
(§1) Figure 4. […] Cell proliferation was analysed using flow cytometry.

Series [1] has as its system PBMCs. The series can be described thus: In vitro cytotoxicity assay with XTT dye, PBMCs. In kind it is cell-based, human. Particulars: Homo sapiens, PBMC, 72 h incubation then 24 h XTT, read-out: IC50 PBMCs (XTT test). The method, then: (§2) Figure 2. Representative dose-response curve to determine the IC50 of MPA and A2. […] Next, plates were incubated for 24 h with XTT reagent. The conversion of water-soluble yellow tetrazolium XTT salt into orange formazan was monitored by measuring the optical density at 450 nm on microplate spectrophotometer. For XTT assay at least three experiments were performed and values are presented as mean ± SD.
(§3) The cytotoxic effect of derivatives of MPA was measured using in vitro 2,3-bis(2-methoxy-4-nitro-5-sulfophenyl)-2H-tetrazolium-5-carboxanilide (XTT)-based assay (Roche, Basel, Swiss). PBMCs suspended in complete X–VIVO20 medium and T-Jurkat cells suspended in complete RPMI-1640 medium were added on a 96-well plate at a concentration of 5 × 10^5 cells/50 µL/well. […] As a background control we used medium without cells, as a positive control we used cells untreated with compounds. After 48 h for T-Jurkat cells and 72 h for PBMCs of incubation in a humidified atmosphere with 5% CO2 at 37 °C, 50 µL of XTT reagent (freshly prepared according to the manufacturer’s procedure) was added to all samples. Plates were incubated for 24 h (5% CO2 at 37 °C). The conversion of water-soluble yellow tetrazolium XTT salt into orange formazan was monitored by measuring the optical density (OD) at 450 nm on Agilent BioTek Epoch Microplate Spectrophotometer (Agilent Technologies, Santa Clara, CA), with a background wavelength at 690 nm. […] Each sample was performed in triplicates.
On the technique in general: Tetrazolium assays rely on reduction of a dye to a coloured formazan, in cell work by metabolically active cells.

Series [2] concerns PBMCs. The series can be described thus: VPD450 proliferation of PBMCs with or without GMP (IMPDH mechanism test). Type of series: cell-based, human. The settings on record: PBMCs, 72 h. As to the method: According to reported experiment, suppression of cell proliferation caused by IMPDH inhibitors in the presence of guanosine source, e.g. gunosine monophosphate (GMP) is reversible.
Figure 5. […] Cell proliferation was analysed using flow cytometry.
Cells proliferation was analyzed using flow cytometry.
(1 picture or pasted object on this page, not shown here)

A further series deals with T-Jurkat cell line. The series can be described thus: In vitro cytotoxicity assay with XTT dye, T-Jurkat. In kind it is cell-based, human. The settings on record: Homo sapiens, 48 h incubation then 24 h XTT, read-out: IC50 T-Jurkat (XTT test). The method, then:
as §2, §3

Series [3] concerns PBMCs. The series can be described thus: cells. Particulars: Homo sapiens, PBMC, 72 h, read-out: EC50 PBMCs (VPD450 proliferation), PBMCs stimulated with anti-CD3/anti-CD28 beads, 72 h.
Protocol: (§4) Cell proliferation was analysed using flow cytometry. The results are expressed as the mean ± SD.
(§5) PBMCs and T-Jurkat cells were washed twice with warm PBS (37 °C), suspended in fresh PBS at a final concentration of 10–30 × 10^6 cells/mL and labelled with 1 µL of VPD450 (BD Biosciences, Franklin Lakes, NJ) at 37 °C for 15 min. Each 5 min cells were vortexed to provide uniform staining[42]^,[43]. Subsequently, cells were washed with PBS and then with complete medium (X-VIVO20 for PBMCs and RPMI-1640 for T-Jurkat cells). After this step, cells were suspended in fresh complete medium, seeded on 96-well plates (1 × 10^6 cells/well). PBMCs were additionally stimulated with magnetic beads coated with anti-CD3 and anti-CD28 antibodies (Invitrogen, Carlsbad, CA) in 1:0.5 cell:bead ratio. Of 100 µL of examined derivatives of MPA were added to experimental wells to receive final concentrations: 100; 10; 1; 0.1; 0.01 µM. In parallel, stained and not stimulated cells, as well as stained and stimulated cells, were seeded in the same concentration as controls. After 48 h for T-Jurkat and 72 h for PBMCs, cells were analysed with flow cytometer LSRFortessa (BD Biosciences, Franklin Lakes, NJ) and Kaluza C Flow Cytometry Analysis Software (Beckman Coulter, Brea, CA). […] Cell viability was determined at the highest concentration of the tested compound. For this purpose, TC20 cell counter (Biorad) was used with trypan blue exclusion.
For series [4], the system named is PBMCs. The settings on record: read-out: EC50 PBMCs (VPD450 proliferation); PBMCs stimulated with anti-CD3/anti-CD28 beads, 72 h.
Protocol: as §4, §5
Series [5] in a line: Dye-based proliferation assay VPD450 (flow cytometry), T-Jurkat. In kind it is cell-based, human. Particulars: human, VPD450-labelled T-Jurkat cells, […], trypan blue exclusion. As to the method:
as §1
(Flow cytometry measures light scatter and fluorescence of single cells or particles in a stream.)

Series [6] in a line: Precipitation / solubility of compounds in culture. Type of series: physicochemical. More on the design: key to Precipitating compound flag (XTT test, PBMCs) / Precipitating compound flag (VPD450 assay, PBMCs): (↓) – precipitating compound. The method, then:
Drug toxicity that affects the cells can cause a variety of serious side effects, including uncontrolled suppression of the immune system. In order to check the cytotoxicity of the tested compounds, the XTT test was performed, the results of which are presented in Table 2. All tested compounds were characterised by lower cytotoxicity than native MPA. Unfortunately, several compounds (marked with ↓) were partially insoluble in culture despite surfactant addition. They were investigated too, but one could not use them as an immunosuppressive drug in their current form. Taking into account the EC50 values obtained in the proliferation tests ([…] staining, Table 3), the compound A2 was selected as the one with the highest immunosuppressive potential and the possibility of its later use in therapy, and is presented in the graphs (Figures 2–4).
To prepare appropriate concentrations of tested compounds, the substances were dissolved in DMSO (Sigma Aldrich, Poland) with 1% addition of Tween20 to obtain final concentration of 0.01 M. The solution was diluted 10-fold and then 5-fold in appropriate medium without additives (RPMI-1640 for T-Jurkat cell line; X-VIVO20 for PBMCs) to obtain the following concentrations: 200; 20; 2; 0.2; 0.02 µM.

Series [7] is described as follows: In vitro cytotoxicity assay with XTT dye, PBMCs. Type of series: cell-based, human. Particulars: human, […], trypan blue exclusion. As to the method:
as §2, §3

The nature of series [8]: In vitro cytotoxicity assay with XTT dye, T-Jurkat. In kind it is cell-based, human. Particulars: human, T-Jurkat cell line, […], trypan blue exclusion. The method, then:
as §2, §3

Another series in a line: in vitro. Particulars: human.
The mark [9] stands for this setting: PBMC culture, DMSO with Tween20.

Structures are written as SMILES. Read-outs that look alike come from different tables or passages of the source.

The record followed here is PMC9542285, “Novel amides of mycophenolic acid and some heterocyclic derivatives as immunosuppressive agents” (Journal of Enzyme Inhibition and Medicinal Chemistry, 2022).

In the case of `COc1c(C)c2c(c(O)c1C/C=C(\C)CCC(=O)Nc1nc3ccccc3o1)C(=O)OC2` [A2, N-(benzo[d]oxazol-2-yl) mycophenolate], the melting point is 175 to 177 °C. The molecule further came in with an EC50 with T-Jurkat cells of 0.85 ± 0.004 µM. For the same molecule, the IC50 in the series with PBMCs [1] is 15.923 ± 0.009 µM. Besides, the “Effect of GMP addition on proliferation” value with PBMCs [2] (50 µM GMP, MPA at 100, 10 and 1 µM, A2 at 100 and 10 µM) is recorded as “proliferation increases after the addition of GMP”. Moreover, the “Mechanism of action (IMPDH inhibition, GMP reversal)” value in the series on PBMCs [2] (with or without 50 µM GMP) was “consistent with that of MPA”. For the same molecule, the IC50 in the series on T-Jurkat cell line was determined as 1.326 ± 0.002 µM. In the series on PBMCs [3], the EC50 amounted to 5.6 µM. Besides, in the series on PBMCs [4], the EC50 was determined as 5.601 ± 0.022 µM.
`COc1c(C)c2c(c(O)c1C/C=C(\C)CCC(=O)Nc1nc3c(C)cccc3s1)C(=O)OC2` [A17, N-(4-methylbenzo[d]thiazol-2-yl) mycophenolate] gave a melting point of 173 to 176 °C. In series [5], this molecule came in with a viability at 48 h, 100 µM of 69%. Moreover, in series [6] (setting [9]), the “Precipitating compound flag (VPD450 assay, PBMCs)” value is “(↓)” and the “Precipitating compound flag (XTT test, PBMCs)” value was “– (↓)”. For the same molecule, in [6] (XTT assay conditions), the “Solubility in PBMC culture” value is recorded as “limited solubility”. The molecule further registered a viability at 72 h, 100 µM in [7] of 65%. The same molecule came in with a viability at 48 h, 100 µM in [8] of 82%. Besides, in the series on PBMCs [3], the EC50 stood at 82.1 µM.
For the molecule `COc1c(C)c2c(c(O)c1C/C=C(\C)CCC(=O)Nc1nc3ccccc3s1)C(=O)OC2` [A1, N-(benzo[d]thiazol-2-yl) mycophenolate], in the series “in vitro”, the viability at 72 h, 100 µM was 82%. The IC50 in the series on PBMCs [1] is 74.57 ± 0.04 µM. Moreover, the viability at 48 h, 100 µM in series [8] was 68%.

By IC50 is commonly meant the concentration that gives 50% inhibition. In general, melting point refers to the temperature, or range, at which the solid turns liquid. By viability is commonly meant the share of living cells, or the viability signal relative to a control.
